Earlier results as cited in patent US20180256623A1, “COMPOSITIONS AND METHOD FOR REGULATING ADIPOSE TISSUE LIPOLYSIS, INSULIN-RESISTANCE, AND HYPERGLYCEMIA” (University of Virginia Patent Foundation, priority 2015, published 2018).
Where two headings read alike, the source gives them in different places.

Tests used:
[1] = test system: 3T3-L1; conditions: means of three experiments, Na = not active, cited from earlier work
[2] = molecular target: T1, HSL (Homo sapiens, UniProt Q05469); conditions: piperidine derivatives; means of three experiments; Na = not active; cited from earlier work
T1 sequence (Q05469 1-1076): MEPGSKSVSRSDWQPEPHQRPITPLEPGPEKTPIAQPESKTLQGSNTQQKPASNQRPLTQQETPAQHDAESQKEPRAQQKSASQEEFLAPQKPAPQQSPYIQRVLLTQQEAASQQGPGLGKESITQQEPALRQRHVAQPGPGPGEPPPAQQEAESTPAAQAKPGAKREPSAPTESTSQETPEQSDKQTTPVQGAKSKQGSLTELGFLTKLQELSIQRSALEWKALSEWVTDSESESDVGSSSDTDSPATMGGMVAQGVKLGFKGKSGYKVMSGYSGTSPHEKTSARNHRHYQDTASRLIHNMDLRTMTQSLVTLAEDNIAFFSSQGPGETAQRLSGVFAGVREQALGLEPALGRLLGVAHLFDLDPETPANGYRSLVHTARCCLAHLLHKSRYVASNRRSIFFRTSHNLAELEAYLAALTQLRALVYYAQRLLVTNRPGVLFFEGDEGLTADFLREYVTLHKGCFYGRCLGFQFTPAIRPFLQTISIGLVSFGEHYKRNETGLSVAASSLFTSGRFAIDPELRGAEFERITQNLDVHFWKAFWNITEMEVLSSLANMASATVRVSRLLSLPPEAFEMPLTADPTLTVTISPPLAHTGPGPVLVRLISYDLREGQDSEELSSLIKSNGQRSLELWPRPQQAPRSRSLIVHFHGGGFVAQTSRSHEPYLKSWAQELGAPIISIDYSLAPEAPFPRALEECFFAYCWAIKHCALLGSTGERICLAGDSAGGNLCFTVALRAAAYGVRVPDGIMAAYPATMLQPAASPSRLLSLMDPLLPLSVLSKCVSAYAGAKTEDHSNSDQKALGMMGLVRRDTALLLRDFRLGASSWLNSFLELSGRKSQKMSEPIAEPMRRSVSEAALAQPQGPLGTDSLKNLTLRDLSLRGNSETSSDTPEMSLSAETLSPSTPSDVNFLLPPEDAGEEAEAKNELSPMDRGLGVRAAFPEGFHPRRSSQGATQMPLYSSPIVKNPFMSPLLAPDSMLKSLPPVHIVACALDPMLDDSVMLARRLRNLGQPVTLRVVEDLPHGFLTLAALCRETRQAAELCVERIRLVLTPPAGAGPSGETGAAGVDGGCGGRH

[3] = Table 3, cyclic amine-derived ureas

## Cc1c(C(C)C)c(=O)on1C(=O)N1CCN(C)CC1 [Compound 47]
[1]; [3]
  IC50: > 1000 nM

## Cc1c(C(C)C)c(=O)on1C(=O)N1CCN(Cc2ccccc2)CC1 [Compound 48]
[1]; [3]
  IC50: 56 nM

## Cc1c(C(C)C)c(=O)on1C(=O)N1CCN(c2ccccc2)CC1 [Compound 49]
[1]; [3]
  IC50: 27 nM

## Cc1c(C(C)C)c(=O)on1C(=O)N1CCOCC1 [Compound 53]
[1]; [3]
  IC50: > 1000 nM

## Cc1c(C(C)C)c(=O)on1C(=O)N1CCSCC1 [Compound 54]
[1]; [3]
  IC50: 290 nM

## Cc1c(C(C)C)c(=O)on1C(=O)N1CCCCCC1 [Compound 55]
[1]; [3]
  IC50: 215 nM

## Cc1c(C(C)C)c(=O)on1C(=O)N1CCCCC1C (stereo not shown) [Compound 57]
[1]; piperidine derivatives
  IC50: 400 nM

## Cc1c(C(C)C)c(=O)on1C(=O)N1CCC[C@@H](C)C1 [Compound 58]
[1]; piperidine derivatives
  IC50: 187 nM

## Cc1c(C(C)C)c(=O)on1C(=O)N1CCC[C@H](C)C1 [Compound 59]
[1]; piperidine derivatives
  IC50: 28 nM

## Cc1c(C(C)C)c(=O)on1C(=O)N1CCCC(CO)C1 (stereo not shown) [Compound 60]
[1]; piperidine derivatives
  IC50: 800 nM

## CCOC(=O)C1CCCN(C(=O)n2oc(=O)c(C(C)C)c2C)C1 (stereo not shown) [Compound 62]
[1]; piperidine derivatives
  IC50: 170 nM

## Cc1c(C(C)C)c(=O)on1C(=O)N1CCC(C)CC1 [Compound 63]
[1]; piperidine derivatives
  IC50: 40 nM

## CCCCc1c(C)n(C(=O)N2CCC(C)CC2)oc1=O [Compound 64]
[1]; piperidine derivatives
  IC50: 10 nM

## Cc1c(C2CCCCC2)c(=O)on1C(=O)N1CCC(C)CC1 [Compound 66]
[1]; piperidine derivatives
  IC50: 20 nM

## CCOCCc1c(C)n(C(=O)N2CCC(C)CC2)oc1=O [Compound 67]
[1]; piperidine derivatives
  IC50: 20 nM

## Cc1c(C2CCSCC2)c(=O)on1C(=O)N1CCC(C)CC1 [Compound 68]
[1]; piperidine derivatives
  IC50: 24 nM

## Cc1c(C(C)C)c(=O)on1C(=O)N1CCC(c2ccccc2)CC1 [Compound 70]
[1]; piperidine derivatives
  IC50: 33 nM

## Cc1c(C2CCCC2)c(=O)on1C(=O)N1CCC(c2ccccc2)CC1 [Compound 72]
[1]; piperidine derivatives
  IC50: 8 nM

## COCCc1c(C)n(C(=O)N2CCC(c3ccccc3)CC2)oc1=O [Compound 73]
[1]; piperidine derivatives
  IC50: 5 nM

## Cc1c(C(C)C)c(=O)on1C(=O)N1CCC(c2cccc(F)c2)CC1 [Compound 74]
[1]; piperidine derivatives
  IC50: 4 nM

## COCCc1c(C)n(C(=O)N2CCC(c3cccc(F)c3)CC2)oc1=O [Compound 75]
[1]; piperidine derivatives
  IC50: 0.2 nM

## COCCc1c(C)n(C(=O)N2CCC(c3cccc(C)c3)CC2)oc1=O [Compound 76]
[1]; piperidine derivatives
  IC50: 4 nM

## Cc1ccc(C2CCN(C(=O)n3oc(=O)c(C(C)C)c3C)CC2)cc1 [Compound 77]
[1]; piperidine derivatives
  IC50: 246 nM

## Cc1c(C(C)C)c(=O)on1C(=O)N1CCC(=O)CC1 [Compound 83]
[1]; piperidine derivatives
  IC50: 150 nM

## Cc1c(C(C)C)c(=O)on1C(=O)N1CCC(C(=O)N(C)C)CC1 [Compound 84]
[2]
  IC50: > 1000 nM

## Cc1nnc(C2CCN(C(=O)n3oc(=O)c(C(C)C)c3C)CC2)o1 [Compound 86]
[2]
  IC50: > 1000 nM

## Cc1c(C(C)C)c(=O)on1C(=O)N1CC(C)CCC1C (stereo not shown) [Compound 88]
[1]; piperidine derivatives
  IC50: > 1000 nM

## Cc1c(C(C)C)c(=O)on1C(=O)N1CC(C)CC(C)C1 (stereo not shown) [Compound 90]
[1]; piperidine derivatives
  IC50: 140 nM

## Cc1c(C(C)C)c(=O)on1C(=O)N1CCC(C#N)(c2ccccc2)CC1 [Compound 91]
[2]
  IC50: > 1000 nM

## Cc1c(C(C)C)c(=O)on1C(=O)N1CCC(O)(c2ccccc2)CC1 [Compound 92]
[1]; piperidine derivatives
  IC50: > 1000 nM
[2]
  IC50: > 1000 nM
